Experimental data taken from US7863283B2, “Sulphoximine-substituted quinazoline derivatives as immuno-modulators, their preparation and use as medicaments” (Bayer Schering Pharma AG, priority 2008, dated 2011).

What was measured:
IL-12 = experiment: TLR-induced cytokine release in human PBMC: IL-12 (ELISA); format: cell-based; details: human PBMC stimulated using a TLR ligand, incubated 18 hours with test substance, supernatant ELISA
Description: (§1) TLR-Induced Cytokine Release in Human “Peripheral Blood Mononuclear Cells” (PBMC)
(§2) PBMCs isolated from human whole blood are stimulated using a TLR ligand. The cytokine determination is carried out by means of ELISA kits; a proliferation/cell metabolism determination is carried out using Alamar Blue.
(§3) For the cell preparation, about 200 ml of blood are treated with an anticoagulant (e.g. citrate Monovettes). Per Leucosep tube, 15 ml of Histopaque (room temperature, RT) are poured in and pressed downwards through the frit employed by brief initial centrifugation (one minute at 1000×g, RT). 20 ml of blood are added to the tubes prepared in this way and centrifuged at 800×g for 15 minutes (RT). After centrifugation, the following layered arrangement results from the top to the bottom: plasma—PBMC—Histopaque—filter disc—Histopaque—erythrocytes and granulocytes. The supernatant plasma is aspirated. The PBMC are transferred together with the underlying Histopaque to a new 50 ml tube, the contents of two Leucosep tubes always being added to one 50 ml tube. The 50 ml tubes are then filled to 50 ml with PBS. This cell suspension is centrifuged at 300×g (RT) for 10 minutes. The liquid supernatant is tipped off and the cell pellet is resuspended with a little PBS and subsequently filled to 50 ml with PBS. This washing step is repeated twice. The resulting pellet is taken up in a defined volume of medium (with additives). For the testing of the substances, PBMC are incubated for 18 hours with titrated concentrations of the test substances, e.g. in the presence or absence of TLR ligands. On the next day, the supernatants are investigated for the content of IL-12, TNF-alpha or other chemokines by means of specific ELISA. The metabolic activity of the treated cells is determined with the aid of Alamar Blue.

TNF-α = experiment: TLR-induced cytokine release in human PBMC: TNF-alpha (ELISA); format: cell-based; details: human PBMC stimulated using a TLR ligand, incubated 18 hours with test substance, supernatant ELISA
Description: as §1, §2, §3

Row | SMILES | IC50 (IL-12) | IC50 (TNF-α)
1 | CC(C)Nc1ncnc2cc(OCc3cccc(S(C)(=N)=O)c3)c(Br)cc12 (racemic) [Example 1.2, (RS)-S-[3-({[6-Bromo-4-(isopropylamino)quinazolin-7-yl]oxy}methyl)phenyl]-S-methylsulphoximide] | 4.1 µM | 2.1 µM
2 | CCS(=N)(=O)c1cccc(COc2cc3ncnc(NC(C)C)c3cc2OC)c1 (racemic) [Example 2.10, (RS)-S-Ethyl-S-[3-({[4-(isopropylamino)-6-methoxyquinazolin-7-yl]oxy}-methyl)phenyl]sulphoximide] | 0.4 µM | 0.2 µM
3 | CC(C)Nc1ncnc2cc(OCc3cncc(S(C)(=N)=O)c3)c(Br)cc12 (racemic) [Example 3.7, (RS)-S-[5-({[6-Bromo-4-(isopropylamino)quinazolin-7-yl]oxy}methyl)pyridin-3-yl]-S-methylsulphoximide] | 4 µM | 1 µM
4 | COc1cc2c(NC(C)C)ncnc2cc1OCCCS(C)(=N)=O (racemic) [Example 3.4, (RS)-S-(4-{[4-(Isopropylamino)-6-methoxyquinazolin-7-yl]oxy}propyl)-S-methyl-sulphoximide] | 15 µM | 10 µM
5 | CC(C)Nc1ncnc2cc(OCc3ccc(S(C)(=N)=O)cc3)c(Br)cc12 (racemic) [Example 2.8, (RS)-S-[4-({[6-Bromo-4-(isopropylamino)quinazolin-7-yl]oxy}methyl)phenyl]-S-methylsulphoximide] | 15 µM | 4 µM
